From paper PMC6600393, “Synthesis and Cytostatic Effect of 3’-deoxy-3’-C-Sulfanylmethyl Nucleoside Derivatives with D-xylo Configuration” (Molecules, 2019)

Legend:
[1] = tested on: SCC; parameters: method as in PMID 20947470; conditions: positive control; ref [36]; cited from earlier work
[2] = tested on: HaCaT cells; experiment: Time-lapse video-microscopy: mother cell size, HaCaT; type: cell-based, human
Experimental: Dynamic functional and morphological effects of compound 10 was investigated via time-lapse (1 frame/min) videomicroscopy under standard cell-breeding conditions. Low intensity, near-infrared (NIR) 940 nm illumination was used, for reduced phototoxicity. Parallel experiments were done in the same CO2 incubator, using two custom-built inverted microscope equipped with sensitive charge-coupled device (CCD) sensors. […] Image sequences were processed and quantitatively analyzed using NIH ImageJ open-source software-bundle. Cell size, cellular generation time, and cell growth of HaCaT and SCC cells were analyzed. Time-lapse video-microscopy record about the effect of 10 and DMSO control on HaCaT and SCC cell lines are available in Supplementary Materials. […]
Mother cells size measurement: • Opening the image sequence in 8-bit format. • Stack Deflicker: The Stack Deflicker calculates the average grey value for each frame and normalizes all frames so that they have the same average grey level as a specified frame of the stack. […] If a region of the stack is selected the average frame intensity will be calculated from this region. • Changing the brightness/contrast, if it is neccesary. • Subtrack background: Removes smooth continuous backgrounds from gels and other images. […]

[3] = tested on: SCC cells; experiment: Time-lapse video-microscopy: mother cell size, SCC; type: cell-based, mouse
Experimental: (§1) Dynamic functional and morphological effects of compound 10 was investigated via time-lapse (1 frame/min) videomicroscopy under standard cell-breeding conditions. Low intensity, near-infrared (NIR) 940 nm illumination was used, for reduced phototoxicity. Parallel experiments were done in the same CO2 incubator, using two custom-built inverted microscope equipped with sensitive charge-coupled device (CCD) sensors. […] Image sequences were processed and quantitatively analyzed using NIH ImageJ open-source software-bundle. Cell size, cellular generation time, and cell growth of HaCaT and SCC cells were analyzed. Time-lapse video-microscopy record about the effect of 10 and DMSO control on HaCaT and SCC cell lines are available in Supplementary Materials.
Each cell line was treated with 17.0 µM solution of compound 10, dissolved in 1% (v/v) DMSO and diluted with cell culture media before application. Then, 1% (v/v) DMSO was used as control. […]
Mother cells size measurement: • Opening the image sequence in 8-bit format. • Stack Deflicker: The Stack Deflicker calculates the average grey value for each frame and normalizes all frames so that they have the same average grey level as a specified frame of the stack. […] If a region of the stack is selected the average frame intensity will be calculated from this region. • Changing the brightness/contrast, if it is neccesary. • Subtrack background: Removes smooth continuous backgrounds from gels and other images. […] A ball of given radius is rolled over the bottom side of this surface; the hull of the volume reachable by the ball is the background to be subtracted. • Treshold: Use this tool to automatically or interactively set lower and upper threshold values, segmenting grayscale images into features of interest and background. • Divided cells were selected on the binary image sequence based on their circularity determined by area/perimeter ratio. • Bigger pre-division mother cells were separated from smaller post-division daughter cells. • Pixel size was calibrated with Burker chamber. • Area calculation from pixel^2 to µm^2.

[4] = tested on: HaCaT cells; experiment: DAPI fluorescent microscopy of nucleus morphology, HaCaT; type: cell-based, human; conditions: 17.0 µM, 48 h, vs DMSO control
Experimental: (§2) In our experiments 4’,6-diamidino-2-phenylindole (DAPI) fluorescent DNA dye has been used for studying the cell nucleus morphology as an indicator of genotoxicity. The HaCaT and SCC cells were treated with DMSO and compound 10, fixed and stained with DAPI, then examined with fluorescent microscopy (Figure 7 and Figure 8).
(§3) For fluorescence staining, cells were breeded in the ibidi microscope slide chamber. The sample preparation process was similar to that of TLS studies, except that after 48 h the samples were fixed with PFA and washed with PBS and left to dry at room temperature overnight. DAPI dye was used for fluorescencnt labbelling of A-T rich regions of DNA.
(§4) Dehydrated slides containing fixated cells were mounted in 35 μL DAPI-Antifade Medium under 24 × […] coverslips. Fluorescence of DAPI (4′,6-diamidino-2-phenylindole) was monitored by fluorescence microscopy (Carl Zeiss Compound Universal Microscope III RS).

[5] = tested on: SCC cells; experiment: DAPI fluorescent microscopy of nucleus morphology, SCC; type: cell-based, mouse; conditions: 17.0 µM, 48 h, vs DMSO control
Experimental: as §2, §3, §4

[6] = tested on: HaCaT cells; experiment: Time-lapse video-microscopy: generation time, HaCaT; type: cell-based, human
Experimental: as §1
For the investigation of the effect of compound 10 on cell-cycle, cellular generation times were measured from time-lapse image sequences.
In LTS video-microscopy studies, ~500.000/350.000 starting cell numbers (T-25 cell culture flask) had been used. Cell cultures had been treated with compound 10 using the IC50 concentration corresponding to the SCC VII.
TLS system architecture: Using the TLS system, various parameters had been tested. Control, DMSO control, and IC50 concentration of compound 10 compared to the above. Based on literature data, 1% (v/v) is the amount that is tolerated even without significant change in cells. […]

[7] = tested on: SCC-VII (mouse squamous carcinoma) cell line; experiment: MTT cell viability assay on SCC-VII cells; type: cell-based
Experimental: (§5) For the investigation of the cytotoxic effect of nucleoside analogues we used healthy human keratinocyte (HaCaT) and tumorous squamous carcinoma SCC-VII cell lines. In the experiments, a standard citotoxicity assay, the MTT assay, was used in a 96-well plate. Importantly, different cell numbers were used in the case of the two different cell lines. The HaCaT cells were seeded 10^4/well concentration while the SCC-VII cells were seeded 5000/well concentration on the plate. In both cases the cells were treated with the nucleoside analogues at ~50% confluence.
SCC-VII is a carcinoma tumor that originally arose in the abdominal wall of C3H mice in Dr. Herman Suit’s laboratory at Harvard University, Boston, Massachusetts. SCC VII cells were grown in Dulbecco’s Modified Eagle’s Medium Nutrient Mixture (DMEM-HAM’S F12) (Sigma-Aldrich) supplemented with 2 mM L-glutamine, 23 mM NaHCO3, 100 U/mL penicillin, 100 U/mL streptomycin 1% non-essential amino acids and 10% fetal bovine serum.
(§6) Cell cultures had been kept under the same conditions during the experiments. Cells were stored at 37 °C, 95% humidity, and 5% CO2 in an incubator. During the MTT-assay, different starter cell number was used because of the cell cycle differences; HaCaT was started with 10.000/well meanwhile SCC VII with 5000/well. After passage, 24 h was assured for the cells to the adhesion. Then incubated with the compounds for 48 h. The experiments were performed in 96 well plates.
(§7) For the dilution of different concentrations of nucleoside analogues were prepared with DMSO 1% (v/v) and DMEM / DMEM-F12/Ham’s F12 cell culture medium.
(§8) After three days of incubation in the cell culture flask, cells were trypsinised into single cell suspensions. Aliquots (200 μL) of each cell suspension were placed in wells of 96-well-plates (Biocenter, Szeged, Hungary). Preliminary tests were conducted with cell numbers 5000 (SCC-VII) and 10,000 (HaCaT) per well. We have been tested five concentrations of each nucleoside analogues (20-10-5-2.5-1.25 µg/mL). The nucleoside analogues were dissolved in DMSO (1 v/v%) and DMEM/ DMEM-F12/Ham’s F12 were added to the wells to produce the required concentrations and the cells were similarly incubated for a further 48 h.
(§9) MTT (Sigma Aldrich, Budapest, Hungary) solution (0.5 mg/mL in PBS) 100 µL was added to each well. The plates were incubated for 1–2 h at 37 ^◦C, the wells aspirated, and MTT formazan extracted with 100 µL of DMSO aided by gentle agitation on a shaker. After 10 min at room temperature, the absorbances were read at 570 nm by an automatic plate reader (WALLAC Victor 2 1420 spectrophotometer), the instrument having been blanked beforehand on a row to which cells had not been added. Percentage viability (respiratory competence) of the population of cells in each well was expressed as: (Absorbance of treated cells/Absorbance of control cells) × 100. IC50 values of the nucleoside analogues were determined by Graphpad.

[8] = tested on: HaCaT (human keratinocyte) cell line; experiment: MTT cell viability assay on HaCaT cells; type: cell-based; conditions: Homo sapiens, HaCaT, 48 h
Experimental: as §5
The HaCaT cell line was derived from human skin, the cells spontaneously transformed in vitro during long time incubation. Cells were cultured in DMEM medium (Biocenter, Szeged, Hungary) containing 10% fetal bovine serum (FBS, Hyclon, Logan, UT) and 1% antibiotic-antimycotic mix (Penicillin–Streptomycin–Neomycin).
as §6, §7, §8, §9

| Compound | IC50 [1] | mother cell size-reduction vs. DMSO ([2]; 17.0 µM) | Treated Cells Size (mother cells) ([2]; 17.0 µM compound 10, n = 15) | overall size change difference between the two cell lines ([3]; HaCaT vs SCC mother cells, 17.0 µM) | Treated Cells Size (mother cells) ([3]; SCC, 17.0 µM compound 10, n = 15) | Treated/DMSO Difference (mother cell size) ([3]; SCC, 17.0 µM, (treated cells size/DMSO control cell size)*100-100) | nucleus morphology (DAPI) [4] | nucleus morphology (DAPI), genotoxicity [5] | Treated/DMSO Difference (generation time) ([6]; 17.0 µM) | Treated Cells Gen. Time ([6]; 17.0 µM compound 10, n = 15) | SI (selectivity index) ([7]; HaCaT IC50/SCC IC50) | IC50 ([7]; Mus musculus, 48 h) | IC50 [8] |
| --- | --- | --- | --- | --- | --- | --- | --- | --- | --- | --- | --- | --- | --- |
| O=c1[nH]cc(F)c(=O)[nH]1 [Compound 5-FU, 5-fluorouracil] | 60.7 ± 8.45 µM | – | – | – | – | – | – | – | – | – | – | – | – |
| CCCCSC[C@@H]1[C@@H](O[Si](C)(C)C(C)(C)C)[C@H](n2cc(C)c(=O)[nH]c2=O)O[C@@H]1CO[Si](C)(C)C(C)(C)C [Compound 10, 1-[3’-Deoxy-3’-C-(n-butylsulfanylmethyl)-2’,5’-di-O-(tert-butyldimethylsilyl)-β-D-xylofuranosyl]-thymine] | – | 9% | 21.60 ± 1.93 µm^2 | ~ 21% | 21.44 ± 1.42 µm^2 | 12.8% | no apparent difference | genotoxic effect | 20.8% | 21.67 ± 1.01 h | 1.64 | 17 ± 1.55 µM | 27.9 ± 1.85 µM |
